Key:
Format in all cases: in vivo
[1] = tested on: blackgrass (Alopecurus myosuroides); assay: Test A1 postemergence, blackgrass; conditions: Postemergence, 0 to 100 scale (0 no effect, 100 complete control)
In short: (§1)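 Seeds were first planted into a blend of loam soil and sand and given a preemergence directed soil spray. In parallel, pots of the same soil were sown for postemergence application once plants reached 2 to 10 cm and the one- to two-leaf stage. Both used surfactant-containing non-phytotoxic solvent formulations.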

corn (Zea mays) = assay: Test A1 preemergence, corn
In short: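 Plants grown in pots of loam/sand mix; preemergence = soil-directed spray on seeded pots, postemergence = spray at 1–2 leaves, height 2–10 cm; test chemicals formulated in non-phytotoxic solvent with surfactant.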

[2] = tested on: ragweed (common ragweed, Ambrosia artemisiifolia); assay: Test A1 preemergence, ragweed
In short: as §1

[3] = tested on: Ryegrass, Italian (Italian ryegrass, Lolium multiflorum); assay: Test A1 preemergence, Ryegrass, Italian
In short: as §1

[4] = tested on: goosegrass (Eleusine indica); assay: Test A1 postemergence, goosegrass; conditions: Postemergence
In short: as §1

[5] = tested on: Foxtail, Giant (giant foxtail, Setaria faberi); assay: Test A1 preemergence, Foxtail, Giant
In short: as §1

[6] = tested on: galium (catchweed bedstraw, Galium aparine); assay: Test A1 postemergence, galium; conditions: Postemergence
In short: as §1

[7] = tested on: Foxtail, Giant (giant foxtail, Setaria faberi); assay: Test A1 postemergence, Foxtail, Giant; conditions: Postemergence
In short: as §1

[8] = 31 g ai/ha, 0 to 100 scale (0 no effect, 100 complete control)
[9] = 125 g ai/ha, 0 to 100 scale, 0 no effect, 100 complete control
[10] = 31 g ai/ha, 0 to 100 scale (0 no effect, 100 complete control), 10 days

Structure (SMILES)	Plant response rating, Blackgrass ([1]; 31 g ai/ha, 10 days)	Plant response rating, Blackgrass ([1]; 125 g ai/ha)	Plant response rating, Corn (corn (Zea mays); [8])	Plant response rating, Corn (corn (Zea mays); [9])	Plant response rating, Ragweed [2, 8]	Plant response rating, Ragweed [2, 9]	Plant response rating, Ryegrass, Italian [3, 8]	Plant response rating, Ryegrass, Italian [3, 9]	Plant response rating, Goosegrass [4, 10]	Plant response rating, Goosegrass ([4]; 125 g ai/ha, 0 to 100 scale)	Plant response rating, Foxtail, Giant [5, 8]	Plant response rating, Foxtail, Giant [5, 9]	Plant response rating, Galium [6, 10]	Plant response rating, Galium ([6]; 125 g ai/ha, 0 to 100 scale)	Plant response rating, Foxtail, Giant [7, 10]	Plant response rating, Foxtail, Giant ([7]; 125 g ai/ha, 0 to 100 scale)
CCCCOC1CC(c2cc(NS(=O)(=O)C(F)(F)F)c(C)cc2C)=NO1 (stereo not drawn) [Compound 323]	0	50	0	10	0	30	40	90	0	50	50	90	50	80	10	50
Cc1cc(F)c(C2=NOC3CCCC23)cc1NS(=O)(=O)C(F)(F)F (stereo not drawn) [Compound 310]	0	0	0	0	0	20	40	50	0	0	0	20	0	0	0	0
Cc1c(NS(=O)(=O)C(F)(F)F)cc(C(=O)N2CCC(F)CC2)c(C)c1C [Compound 358]	0	0	0	50	40	80	0	30	0	80	80	100	70	100	0	40
Cc1cc(C2CC2)c(C2=NOC3CCCC23)cc1N(COC(=O)C(C)(C)C)S(=O)(=O)C(F)(F)F (stereo not drawn) [Compound 355]	0	0	0	0	0	40	20	30	0	70	0	60	40	60	10	60
Cc1cc(C)c(N(C(=O)OCC(C)C)S(=O)(=O)C(F)(F)F)cc1C1=NOC2CCCC12 (stereo not drawn) [Compound 299]	0	0	0	0	0	30	50	60	30	40	0	40	40	60	0	30
Cc1c(NS(=O)(=O)C(F)(F)F)cc(C(=O)N2CCC(Cl)CC2)c(C)c1C [Compound 356]	0	0	0	90	0	0	0	40	0	70	90	100	70	100	10	40
C#CCN(C)C(=O)c1cc(NS(=O)(=O)C(F)(F)F)c(Cl)c(F)c1C [Compound 337]	0	30	0	70	70	90	30	100	0	90	20	100	70	100	0	90
CCOC1CC(c2cc(NS(=O)(=O)C(F)(F)F)c(C)cc2C)=NO1 (stereo not drawn) [Compound 318]	0	50	0	70	50	70	50	90	30	30	30	90	60	60	0	80
Cc1c(NS(=O)(=O)C(F)(F)F)cc(C(=O)N(C)C)c(C)c1C [Compound 288]	0	0	0	0	0	40	0	0	0	70	20	90	0	0	0	70
Cc1cc(C2CC2)c(C2=NOC3CCCC23)cc1NS(=O)(=O)C(F)(F)F (stereo not drawn) [Compound 307]	0	10	0	0	0	60	50	100	30	80	50	100	40	60	20	40
Cc1c(C(=O)N2CCC(Cl)CC2)cc(N(COC(=O)C(C)(C)C)S(=O)(=O)C(F)(F)F)c(C)c1C [Compound 359]	0	0	0	0	0	80	0	0	0	20	0	90	50	80	0	60
CCC1ON=C(c2cc(N(COC(=O)C(C)(C)C)S(=O)(=O)C(F)(F)F)c(C)cc2C)C1CC (stereo not drawn) [Compound 347]	0	30	0	0	0	0	0	0	0	40	0	60	30	100	20	30
Cc1cc(Br)c(NS(=O)(=O)C(F)(F)F)cc1C1=NOC2(CCCC2)C1 [Compound 309]			0	0	0	20	60	90	0	30	60	90	40	80	20	60
Cc1cc(F)c(NS(=O)(=O)C(F)(F)F)cc1C1=NOC2(CCCC2)C1 [Compound 303]			0	90	0	0	50	100	0	70	80	100	60	90	30	80
COc1cc(C)c(C2=NOC3(CCCC3)C2)cc1NS(=O)(=O)C(F)(F)F [Compound 304]			0	0	0	50	40	50	0	0	0	80	0	0	0	50
